Calls of active or inactive are those of the source. The calls are words filed in the database; no cut-off is given here.
Experiments:
[1] = Stability in human serum assessed as phosphorus peak formation measured over 12 hrs by [31P]-NMR analysis; assay type: ADME, cell-free
[2] = Stability in human serum incubated for 12 hrs by mass spectrometric analysis; assay type: ADME, cell-free
[3] = target: Signal transducer and activator of transcription 3 (Homo sapiens) (UniProt P40763); assay: Inhibition of STAT3 dimerization in human MDA-MB-231 cells assessed as down-regulation of survivin protein expression at 0.1 to 100 uM after 24 hrs by Western blot analysis; assay type: cell-based
Signal transducer and activator of transcription 3 (Homo sapiens), sequence (P40763 whole entry): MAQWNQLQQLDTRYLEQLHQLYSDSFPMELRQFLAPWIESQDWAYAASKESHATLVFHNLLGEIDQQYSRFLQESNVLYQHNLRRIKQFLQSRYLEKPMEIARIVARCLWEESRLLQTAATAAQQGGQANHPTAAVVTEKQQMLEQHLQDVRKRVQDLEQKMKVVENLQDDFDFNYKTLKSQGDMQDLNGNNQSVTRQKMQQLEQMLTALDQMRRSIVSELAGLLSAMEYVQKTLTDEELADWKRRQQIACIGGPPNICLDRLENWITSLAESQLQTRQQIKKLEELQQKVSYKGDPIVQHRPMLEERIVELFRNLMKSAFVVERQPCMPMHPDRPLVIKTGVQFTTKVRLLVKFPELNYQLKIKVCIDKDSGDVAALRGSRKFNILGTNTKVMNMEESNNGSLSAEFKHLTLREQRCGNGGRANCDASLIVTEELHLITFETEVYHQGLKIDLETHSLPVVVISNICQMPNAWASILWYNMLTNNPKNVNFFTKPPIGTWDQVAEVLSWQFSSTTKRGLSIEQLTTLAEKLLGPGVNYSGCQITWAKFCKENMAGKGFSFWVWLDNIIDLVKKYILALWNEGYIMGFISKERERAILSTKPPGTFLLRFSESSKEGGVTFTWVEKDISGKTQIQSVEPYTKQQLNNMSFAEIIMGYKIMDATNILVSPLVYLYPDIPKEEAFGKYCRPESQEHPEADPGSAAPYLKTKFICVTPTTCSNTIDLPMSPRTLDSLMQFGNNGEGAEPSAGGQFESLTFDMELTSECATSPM

[4] = target: Signal transducer and activator of transcription 3 (Homo sapiens) (UniProt P40763); assay: Inhibition of STAT3 dimerization in human MDA-MB-231 cells assessed as down-regulation of Bcl-xl protein expression at 0.1 to 100 uM after 24 hrs by Western blot analysis; assay type: cell-based
[5] = target: Signal transducer and activator of transcription 3 (Homo sapiens) (UniProt P40763); assay: Inhibition of STAT3 dimerization in human MDA-MB-231 cells assessed as down-regulation of survivin protein expression at 30 uM after 24 hrs by Western blot analysis; assay type: cell-based

Row | Stability [1] | Stability [2] | inhibition [4] | Structure (SMILES) | inhibition [3] | inhibition [5]
1 | Stable | Stable | Active | COC(=O)[C@H](CC(C)C)NC(=O)[C@H](Cc1ccc(OP(=O)(N[C@@H](C)C(=O)OC(C)C)Oc2cccc3ccccc23)cc1)NC(=O)c1ccc(C#N)cc1 (some centres undefined) | Active | Active
2 |  |  | Active | COC(=O)[C@H](CC(C)C)NC(=O)[C@H](Cc1ccc(OP(=O)(N[C@@H](C)C(=O)OCc2ccccc2)Oc2cccc3ccccc23)cc1)NC(=O)c1ccc(C#N)cc1 (some centres undefined) | Active | 
3 |  |  | Active | COC(=O)[C@H](C)NP(=O)(Oc1ccc(C[C@H](NC(=O)c2ccc(C#N)cc2)C(=O)N[C@@H](CC(C)C)C(=O)OC)cc1)Oc1cccc2ccccc12 (some centres undefined) | Active | Active
4 |  |  | inactive | COC(=O)[C@H](CC(C)C)NC(=O)[C@H](Cc1ccc(OP(=O)(O)O)cc1)NC(=O)c1ccc(C#N)cc1 | inactive | 

Row | Structure (SMILES) | Stability [1] | Stability [2] | inhibition [4] | inhibition [3] | inhibition [5]
5 | CC(C)C[C@H](NC(=O)[C@H](Cc1ccc(OP(=O)(O)O)cc1)NC(=O)c1ccc(C#N)cc1)C(=O)O |  |  | inactive | inactive | 

Source: ChEMBL document CHEMBL4480359, “Phosphotyrosine prodrugs: design, synthesis and anti-STAT3 activity of ISS-610 aryloxy triester phosphoramidate prodrugs” (Medchemcomm, 2019)
